The values that follow are results of earlier work, collected in patent US7029652B2, “Method of treating tumors” (The Regents of the University of California, priority 1998, dated 2006).

In the data set the test system is HBT 3477 tumors. The conditions noted are these: 250 μg provided 1 hour before RIT; cited from earlier work.

In the case of “cyclo-(Arg-Gly-Asp-D-Phe-1-aminocyclohexane carboxylic acid) [EMD 270179]”, the “increased uptake of RIT by HBT 3477 tumors” value is listed as “up to 50%”.
